Test results taken from PubChem BioAssay (NCI).
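Step 1: Grow cells in 96-well plates. Step 2: Expose to compound for 48 hours at 5 concentrations. Step 3: Interpolate endpoints linearly; if unreached, use highest concentration. GI50 is the concentration that inhibits growth by half. At the TGI there is no net growth.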

Legend:
Test in all cases: inhibition of tumour cell growth, NCI panel, 48 h
[1] = test system: HOP-92 NSCLC
[2] = test system: DU-145 prostate
[3] = test system: MOLT-4 leukemia
[4] = test system: NCI/ADR-RES ovarian
[5] = test system: A498 renal
[6] = test system: OVCAR-5 ovarian
[7] = test system: MDA-MB-468 breast
[8] = test system: SNB-75 CNS
[9] = test system: SF-268 CNS
[10] = test system: K-562 leukemia
[11] = test system: SK-OV-3 ovarian
[12] = test system: MDA-MB-231 breast
[13] = test system: T-47D breast
[14] = test system: HL-60(TB) leukemia
[15] = test system: CAKI-1 renal
[16] = test system: RXF 393 renal
[17] = test system: A549 NSCLC
[18] = test system: SR leukemia
[19] = test system: PC-3 prostate
[20] = test system: NCI-H522 lung
[21] = test system: MCF7 breast
[22] = test system: LOX IMVI melanoma
[23] = test system: COLO 205 colon
[24] = test system: NCI-H460 lung
[25] = test system: 786-0 renal
[26] = test system: OVCAR-4 ovarian
[27] = test system: TK-10 renal
[28] = test system: SN12C renal
[29] = test system: SK-MEL-5 melanoma
[30] = test system: IGROV1 ovarian
[31] = test system: OVCAR-8 ovarian
[32] = test system: HS 578T breast
[33] = test system: HT29 colon
[34] = test system: OVCAR-3 ovarian
[35] = test system: M14 melanoma
[36] = test system: MDA-MB-435
[37] = test system: MALME-3M melanoma
[38] = test system: HCT-116 colon
[39] = test system: NCI-H226 lung
[40] = test system: HCT-15 colon
[41] = test system: SF-295 CNS
[42] = test system: UO-31 renal
[43] = test system: SK-MEL-28 melanoma
[44] = test system: U251 CNS
[45] = test system: EKVX NSCLC
[46] = test system: UACC-257 melanoma
[47] = test system: UACC-62 melanoma
[48] = test system: SF-539 CNS
[49] = test system: RPMI-8226 leukemia
[50] = test system: NCI-H23 lung
[51] = test system: SK-MEL-2 melanoma
[52] = test system: BT-549 breast
[53] = test system: SNB-19 CNS
[54] = test system: CCRF-CEM leukemia
[55] = test system: HOP-62 NSCLC
[56] = test system: KM12 colon
[57] = test system: ACHN renal

Structure (SMILES): CCOc1ccc(/C=N/NC(=O)Cn2nc(Cc3ccc([N+](=O)[O-])cc3)c3onc(C)c3c2=O)cc1
- GI50 [1]: 2.41 µM
- TGI [1]: 8.23 µM
- GI50 [2]: 11.2 µM
- TGI [2]: > 100 µM
- GI50 [3]: > 100 µM
- TGI [3]: > 100 µM
- GI50 [4]: 6.53 µM
- TGI [4]: > 100 µM
- GI50 [5]: 4.88 µM
- TGI [5]: 21 µM
- GI50 [6]: > 100 µM
- TGI [6]: > 100 µM
- GI50 [7]: 3.35 µM
- TGI [7]: 20 µM
- GI50 [8]: 1.6 µM
- TGI [8]: 7.67 µM
- GI50 [9]: 5.75 µM
- TGI [9]: 68.5 µM
- GI50 [10]: > 100 µM
- TGI [10]: > 100 µM
- GI50 [11]: 8.24 µM
- TGI [11]: 27.2 µM
- GI50 [12]: 2.3 µM
- TGI [12]: 6.44 µM
- GI50 [13]: 2.57 µM
- TGI [13]: > 100 µM
- GI50 [14]: > 100 µM
- TGI [14]: > 100 µM
- GI50 [15]: 3.08 µM
- TGI [15]: 12.3 µM
- GI50 [16]: 2.57 µM
- TGI [16]: 7.35 µM
- GI50 [17]: 4.19 µM
- TGI [17]: > 100 µM
- GI50 [18]: > 100 µM
- TGI [18]: > 100 µM
- GI50 [19]: 6.35 µM
- TGI [19]: > 100 µM
- GI50 [20]: 3.26 µM
- TGI [20]: 32.5 µM
- GI50 [21]: > 100 µM
- TGI [21]: > 100 µM
- GI50 [22]: 5.34 µM
- TGI [22]: > 100 µM
- GI50 [23]: > 100 µM
- TGI [23]: > 100 µM
- GI50 [24]: 4.37 µM
- TGI [24]: > 100 µM
- GI50 [25]: 2.47 µM
- TGI [25]: 6.64 µM
- GI50 [26]: 3.26 µM
- TGI [26]: > 100 µM
- GI50 [27]: 2.41 µM
- TGI [27]: 6.62 µM
- GI50 [28]: > 100 µM
- TGI [28]: > 100 µM
- GI50 [29]: 6.85 µM
- TGI [29]: > 100 µM
- GI50 [30]: 27.6 µM
- TGI [30]: > 100 µM
- GI50 [31]: 10.1 µM
- TGI [31]: > 100 µM
- GI50 [32]: 2.84 µM
- TGI [32]: 8.23 µM
- GI50 [33]: > 100 µM
- TGI [33]: > 100 µM
- GI50 [34]: 9.59 µM
- TGI [34]: > 100 µM
- GI50 [35]: 28.2 µM
- TGI [35]: > 100 µM
- GI50 [36]: > 100 µM
- TGI [36]: > 100 µM
- GI50 [37]: 6.71 µM
- TGI [37]: 44.9 µM
- GI50 [38]: 3.21 µM
- TGI [38]: > 100 µM
- GI50 [39]: 2.43 µM
- TGI [39]: 6.99 µM
- GI50 [40]: > 100 µM
- TGI [40]: > 100 µM
- GI50 [41]: 3.26 µM
- TGI [41]: 10.8 µM
- GI50 [42]: 3.45 µM
- TGI [42]: > 100 µM
- GI50 [43]: 6.14 µM
- TGI [43]: > 100 µM
- GI50 [44]: 2.3 µM
- TGI [44]: 7.06 µM
- GI50 [45]: > 100 µM
- TGI [45]: > 100 µM
- GI50 [46]: 69.9 µM
- TGI [46]: > 100 µM
- GI50 [47]: 12.9 µM
- TGI [47]: 93.9 µM
- GI50 [48]: 3.1 µM
- TGI [48]: 10.1 µM
- GI50 [49]: > 100 µM
- TGI [49]: > 100 µM
- GI50 [50]: 7.06 µM
- TGI [50]: 35.1 µM
- GI50 [51]: 13.8 µM
- TGI [51]: 36.9 µM
- GI50 [52]: 20.3 µM
- TGI [52]: > 100 µM
- GI50 [53]: 3.41 µM
- TGI [53]: 14.1 µM
- GI50 [54]: > 100 µM
- TGI [54]: > 100 µM
- GI50 [55]: 2.55 µM
- TGI [55]: 6.99 µM
- GI50 [56]: > 100 µM
- TGI [56]: > 100 µM
- GI50 [57]: 3.33 µM
- TGI [57]: 11 µM
